Test results published in paper PMC4642847, “The PDB database is a rich source of alpha-helical anti-microbial peptides to combat disease causing pathogens” (F1000Research, 2015).
Where no end group is shown, it is not given here.

Tested on: Xylella fastidiosa 3A2 (Xf)

Sequence | Minimum Inhibitory Concentration
KWKVFKKIEKMGRNIRNGIVKAGPAIAVLGEAKAL [CECB, Cecropin B, reference compound] | 100 25 µM
TIWKGVPKFLRRVDTALKNI [PPC20] | 150 50 µM
TAYGIMARQPNSRKSFIDSSIRLAR [CHITI25] | 100 150 µM
TLDELELFTDAVERW [ISS15] | >300 >300 µM
WKVFKKIEKMGRNIRNGIVKA [CBNT21, reference compound] | 200 25 µM

Tested on: Liberibacter crescens BT-1 (Lc)

Sequence | Minimum Inhibitory Concentration [µM]
KWKVFKKIEKMGRNIRNGIVKAGPAIAVLGEAKAL [CECB, Cecropin B, reference compound] | 100
TIWKGVPKFLRRVDTALKNI [PPC20] | 200
TAYGIMARQPNSRKSFIDSSIRLAR [CHITI25] | >300
TLDELELFTDAVERW [ISS15] | >300
WKVFKKIEKMGRNIRNGIVKA [CBNT21, reference compound] | 200

Tested on: Xanthomonas arboricola 417 (Xa)

Sequence | Minimum Inhibitory Concentration
TAYGIMARQPNSRKSFIDSSIRLAR [CHITI25] | 100 150 µM
TLDELELFTDAVERW [ISS15] | >300 >300 µM
